Test results published in patent publication US6369083B1, “2-methoxyimino-2 (pyrinyloxymethyl) phenyl acetamides with polyether derivatives on the pyridine ring” (Dow AgroSciences LLC, priority 1998, dated 2002).

Legend:
Assay type in all cases: in vivo
[1] = system: Erysiphe graminis; assay: Powdery Mildew of Wheat (ERYSGT); conditions: wheat (cultivar Monon), inoculated, sprayed at 25 ppm after 48 hours
Method: Compound Formulation: […] Final treatment volumes were obtained by adding nine volumes 0.05kOO aqueous Tween-20 or Triton X-100, depending upon the pathogen. Powdery Mildew of Wheat (Erysiphe graminis-[…]): Wheat (cultivar Monon) was grown in a soilless peat-based potting mixture (Metromix) until the seedlings were 1-2 leaf (BBCH 12). These plants were then inoculated with Erysiphe graminis by dusting spores from stock plants onto the test plants. After 48 hours the plants were sprayed to run off with the test compound at a rate of 25 ppm and then kept in the greenhouse until disease developed on the untreated control plants. The following table presents the activity of typical compounds of the present invention when evaluated in these experiments. The effectiveness of the test compounds in controlling disease was rated using the following scale: […]

[2] = system: Plasmopara viticola; assay: Downy Mildew of Grape (PLASVI), 96 hour protectant; conditions: grape vines (cultivar Carignane), sprayed at 100 ppm, inoculated after 96 hours (protectant)
Method: Compound Formulation: […] Final treatment volumes were obtained by adding nine volumes 0.05kOO aqueous Tween-20 or Triton X-100, depending upon the pathogen. Downy Mildew of Grape (Plasmogara viticola-[…]) (96 Hour Protectant): Vines (cultivar Carignane) were grown from seed in a soilless peat-based potting mixture (Metromix) until the seedlings were 10-20 cm tall. These plants were then sprayed to run off with the test compound at a rate of 100 ppm. After 96 hours the test plants were inoculated by spraying with an aqueous sporangia suspension of Plasmopara viticola. The plants were then transferred to the greenhouse until disease developed on the untreated control plants. The following table presents the activity of typical compounds of the present invention when evaluated in these experiments. The effectiveness of the test compounds in controlling disease was rated using the following scale: […]

[3] = system: Puccinia recondita; assay: Brown rust (PUCCRT); conditions: wheat (cultivar Monon), sprayed at 100 ppm, inoculated after 24 hours
Method: (§1) Compound Formulation: […] Final treatment volumes were obtained by adding nine volumes 0.05kOO aqueous Tween-20 or Triton X-100, depending upon the pathogen. Glume blotch of wheat (Leptosphaeria nodorum-[…]): Wheat (cultivar Monon) was grown from seed in a soilless peat-based potting mixture (Metromix) until the seedlings were 1-2 leaf (BBCH 12). These plants were then sprayed to run off with the test compound at a rate of 100 ppm. After 24 hours the test plants were inoculated with an aqueous spore suspension of Leptosphaeria nodorum. The plants were then transferred to the greenhouse until disease developed on the untreated control plants. Brown rust (Puccinia recondita-PUCCRT): Wheat (cultivar Monon) was grown from seed in a soilless peat-based potting mixture (Metromix) until the seedlings were 1-2 leaf (BBCH 12). These plants were then sprayed to run off with the test compound at a rate of 100 ppm. After 24 hours the test plants were inoculated with an aqueous spore suspension of Puccinia recondita. The plants were then transferred to the greenhouse until disease developed on the untreated control plants. The following table presents the activity of typical compounds of the present invention when evaluated in these experiments. The effectiveness of the test compounds in controlling disease was rated using the following scale: […]

[4] = system: Leptosphaeria nodorum; assay: Glume blotch of wheat (LEPTNO); conditions: wheat (cultivar Monon), sprayed at 100 ppm, inoculated after 24 hours
Method: as §1

CNC(=O)C(=NOC)c1ccccc1COc1cccc(OCC2COC(C)(C)O2)n1 (stereo not drawn) [Compound 2, Benzeneacetamide, 2-[[[6-((2,2-dimethyl-1,3-dioxolanyl)-4-methoxy)-2-pyridinyl]oxy]methy]-α-(methoxyimino)-N-methyl-] was tested, and the “ERYSGT control of plant disease” value [1] was “+ (+ = 25-74% control of plant disease)”, the “PLASVI control of plant disease” value [2] was “++ (++ = 75-100 % control of plant disease)” and the “PUCCRT control of plant disease” value [3] was “++ (++ = 75-100 % control of plant disease)”. The “LEPTNO control of plant disease” value [4] was “++ (++ = 75-100 % control of plant disease)”.

In the case of CCOCCOc1nc(OCc2ccccc2C(=NOC)C(=O)NC)ccc1Cl [Compound 24, Benzeneacetamide, 2-[[[5-chloro-6-(2-ethoxyethoxy)-2-pyridinyl]oxy]methyl]-α-(methoxyimino)-N-methyl-], the “ERYSGT control of plant disease” value [1] is reported as “++ (++ = 75-100 % control of plant disease)”, the “PLASVI control of plant disease” value [2] is reported as “++ (++ = 75-100 % control of plant disease)” and the “LEPTNO control of plant disease” value [4] is reported as “+ (+ = 25-74% control of plant disease)”.

For CNC(=O)C(=NOC)c1ccccc1COc1cccc(OC(COC)OC)n1 (centres unmarked) [Compound 22], the “ERYSGT control of plant disease” value [1] was “++ (++ = 75-100 % control of plant disease)”, the “PLASVI control of plant disease” value [2] was “+ (+ = 25-74% control of plant disease)” and the “LEPTNO control of plant disease” value [4] was “+ (+ = 25-74% control of plant disease)”.

CCOCCOc1nc(OCc2ccccc2C(=NOC)C(=O)NC)c(Cl)cc1Cl [Compound 18] was tested, and the “ERYSGT control of plant disease” value [1] was “+ (+ = 25-74% control of plant disease)”, the “PLASVI control of plant disease” value [2] was “++ (++ = 75-100 % control of plant disease)” and the “LEPTNO control of plant disease” value [4] was “++ (++ = 75-100 % control of plant disease)”.

With CCOCCOc1cccc(OCc2ccccc2C(=NOC)C(=O)NC)n1 [Compound 17] the “ERYSGT control of plant disease” value [1] was “+ (+ = 25-74% control of plant disease)”, the “PLASVI control of plant disease” value [2] was “++ (++ = 75-100 % control of plant disease)” and the “LEPTNO control of plant disease” value [4] was “++ (++ = 75-100 % control of plant disease)”.

For CCOCCOCCOc1nc(OCc2ccccc2C(=NOC)C(=O)NC)c(Cl)cc1Cl [Compound 16], the “ERYSGT control of plant disease” value [1] was “++ (++ = 75-100 % control of plant disease)”, the “PLASVI control of plant disease” value [2] was “++ (++ = 75-100 % control of plant disease)” and the “LEPTNO control of plant disease” value [4] was “+ (+ = 25-74% control of plant disease)”.

For CNC(=O)C(=NOC)c1ccccc1COc1nc(OCC2COC(C)(C)O2)c(Cl)cc1Cl (centres unmarked) [Compound 1], the “ERYSGT control of plant disease” value [1] was “+ (+ = 25-74% control of plant disease)”, the “PLASVI control of plant disease” value [2] was “++ (++ = 75-100 % control of plant disease)” and the “PUCCRT control of plant disease” value [3] was “++ (++ = 75-100 % control of plant disease)”. For the same compound, the “LEPTNO control of plant disease” value [4] was “++ (++ = 75-100 % control of plant disease)”.

With CNC(=O)C(=NOC)c1ccccc1COc1cccc(OCCOC(C)C)n1 [Compound 53] the “ERYSGT control of plant disease” value [1] was “++ (++ = 75-100 % control of plant disease)”, the “PLASVI control of plant disease” value [2] was “++ (++ = 75-100 % control of plant disease)” and the “LEPTNO control of plant disease” value [4] was “− (− = 0-24% control of plant disease)”.
